From US4140707A, “Malonato platinum anti-tumor compounds” (priority 1977, dated 1979)

What was measured:
Sarcoma 180 [1] = assay: Antitumor activity, solid Sarcoma 180 (Table I), T/C tumor weight ratio, sacrifice day 10; type: in vivo, female Swiss white mice
Description: The compounds of the invention were tested for anti-tumor activity using our standard screening tumor, solid sarcoma 180 tumer in female Swiss white mice, following standard protocols for this testing as set by the National Cancer Institute. (Cancer Chemotherapy Rep., 25(1962)).
For these tests an S 180 tumor taken from a sacrificed mouse was disected free of superfluous tissue and cut under sterile conditions into approximately 10 milligram size pieces. These tissue pieces were then implanted by trocar in the left axillary region, subcutaneously, in new mice. The mice were, on the average, approximately four weeks old and weighed 18-20 grams. Taking day 0 as the day of implant, the animals were sacrificed on day 10. The tumors were excised and weighed and the ratio of the weights of the tumors in mice in the treated animals to the control set of animals was obtained. This ratio, multiplied by 100, is given as the T/C ratio in Table I.
For the first set of tests the coordination compound was freshly dissolved in sterile distilled water and injected intraperitoneally on day 1 into each of the test mice. The volume of the injection was usually 1/2 ml. In some cases, in order to get an active dose into the animal where the chemical was not soluble in this amount of solvent, a fine dispersion was prepared of the dose needed for the test. Thus, some of our test results were obtained on animals where a slurry of the compound was injected. These are so noted in Table I below. In addition, for some of the compounds, there was injected about 1 ml of solution, either in one single injection, or in 2 injections given a few hours apart of 1/2 ml each. These injections were initially given in 4 different dose levels for each new compound with 6 mice in each dose level. The tests covered a dose range from a low ineffective dose, to an upper dose level which produced some deaths within the time period of the experiment.

L1210 = assay: Confirmatory antitumor activity at the National Cancer Institute, L1210 (Table IV); type: in vivo, Mice
From the text: Samples of the malonato diammine and malonato ethylene diamino complexes of platinum(II) were submitted to the Drug Research and Development Branch of the National Cancer Institute for screening for antitumor activity against the L1210 tumor in mice. They confirm the activity of the compounds of the invention.

[2] = tested on: Walker 256 Carcinosarcoma; assay: Confirmatory antitumor activity, Walker 256 Carcinosarcoma (Table III); type: in vivo, Rat; settings: i.p.
Description: (§1) Confirmatory tests of antitumor activity against the Walker 256 Circinosarcoma in rats, and the ADJ/PC6A tumor in mice were conducted. The initial test results are shown in Table III and confirm the potent action of the compounds of the invention against these other tumor systems.

Sarcoma 180 [3] = assay: Large Sarcoma 180 regressions (Table II), injection day 8, observed approximately 60 days; type: in vivo, female Swiss white mice; settings: single i.p. day 8, H2O solution
Description: In addition to the day 1 injections described above, in a number of cases injections were delayed until day 8 of tumor growth. In these cases the tumor was usually at least larger than 1/2 gm, as estimated by palpation. The animals were then injected and observed for a period of approximately 60 days. Activity was measured by the number of animals whose tumors had regressed to the vanishing point, while still allowing the animal to survive for this time period. Such test results are described in TABLE II below.

ADJ/PC6A = assay: Confirmatory antitumor activity, ADJ/PC6A (Table III); type: in vivo, Mouse; settings: i.p.
Description: as §1

[4] = 20 mg/kg, single i.p. day 1, vehicle not noted
[5] = 40 mg/kg, single i.p. day 1, vehicle not noted
[6] = 60 mg/kg, single i.p. day 1, vehicle not noted
[7] = 80 mg/kg, single i.p. day 1, vehicle not noted
[8] = 100 mg/kg, single i.p. day 1, vehicle not noted
[9] = 120 mg/kg, single i.p. day 1, vehicle not noted
[10] = 160 mg/kg, single i.p. day 1, vehicle not noted
[11] = 10 mg/kg, single injection day 1 in oil
[12] = 20 mg/kg, single injection day 1 in oil
[13] = 40 mg/kg, single injection day 1 in oil
[14] = 10 mg/kg, single i.p. day 1, solution in H2O
[15] = 20 mg/kg, single i.p. day 1, solution in H2O
[16] = 40 mg/kg, single i.p. day 1, solution in H2O
[17] = 45 mg/kg, single i.p. day 1, solution in H2O
[18] = 50 mg/kg, single i.p. day 1, solution in H2O
[19] = 55 mg/kg, single i.p. day 1, solution in H2O
[20] = 60 mg/kg, single i.p. day 1, solution in H2O
[21] = 80 mg/kg, single i.p. day 1, solution in H2O
[22] = dose 4, single injection day 25 in oil
[23] = dose 20, single injection day 25 in oil
[24] = dose 100, single injection day 25 in oil
[25] = 140 mg/kg, single i.p. day 1, vehicle not noted
[26] = 180 mg/kg, single i.p. day 1, vehicle not noted
[27] = 30 mg/kg, single i.p. day 1, solution in H2O
[28] = 70 mg/kg, single i.p. day 1, solution in H2O
[29] = 90 mg/kg, single i.p. day 1, solution in H2O
[30] = 90 mg/kg, single i.p. day 1, vehicle not noted
[31] = 110 mg/kg, single i.p. day 1, vehicle not noted
[32] = 45 mg/kg, single i.p. day 1, vehicle not noted
[33] = 75 mg/kg, single i.p. day 1, vehicle not noted

## NCCCN.O=C([O-])CC(=O)[O-].[Pt+2] [malonato-1,3 propylenediamineplatinum (II)]
Sarcoma 180 [1]; [4]
  No. of Deaths: 0
  T/C: 69
Sarcoma 180 [1]; [5]
  No. of Deaths: 0
  T/C: 79
Sarcoma 180 [1]; [6]
  No. of Deaths: 0
  T/C: 21
Sarcoma 180 [1]; [7]
  No. of Deaths: 1
  T/C: 35

## N.N.O=C([O-])C1(C(=O)[O-])CCC1.[Pt+4] [1,1-cyclobutanedicarboxylate diammineplatinum (II)]
Sarcoma 180 [1]; [4]
  No. of Deaths: 0
  T/C: 71
Sarcoma 180 [1]; [5]
  No. of Deaths: 0
  T/C: 60
Sarcoma 180 [1]; [6]
  No. of Deaths: 0
  T/C: 38
Sarcoma 180 [1]; [7]
  No. of Deaths: 0
  T/C: 42
Sarcoma 180 [1]; [8]
  No. of Deaths: 0
  T/C: 69
Sarcoma 180 [1]; [9]
  No. of Deaths: 0
  T/C: 18
Sarcoma 180 [1]; [10]
  No. of Deaths: 4
  T/C: 62

## NCCN.O=C([O-])CC(=O)[O-].[Pt+2] [malonatoethylenediamineplatinum (II)]
L1210; 16.5 mg/kg, i.p. daily days 1-9, repeat test
  % Increase in Lifespan: 160%
L1210; 25 mg/kg, i.p. daily days 1-9
  % Increase in Lifespan: 160%
[2]; [11]
  % Inhibition: 1%
  Deaths: 0
[2]; [12]
  % Inhibition: 25%
  Deaths: 0
[2]; [13]
  % Inhibition: 100%
  Deaths: 0
[2]; 80 mg/kg, single injection day 1 in oil
  Deaths: 0
[2]; dose 80, single injection day 1 in oil
  % Inhibition: 100%
[2]; dose 160, single injection day 1 in oil
  Deaths: all
Sarcoma 180 [1]; [14]
  No. of Deaths: 0
  T/C: 88
Sarcoma 180 [1]; [15]
  No. of Deaths: 0
  T/C: 58
Sarcoma 180 [1]; [16]
  No. of Deaths: 0
  T/C: 18
Sarcoma 180 [1]; [17]
  No. of Deaths: 0
  T/C: 49
Sarcoma 180 [1]; [18]
  No. of Deaths: 0
  T/C: 35
Sarcoma 180 [1]; [19]
  No. of Deaths: 0
  T/C: 38
Sarcoma 180 [1]; [20]
  No. of Deaths: 3/6
  T/C: 15
Sarcoma 180 [1]; [6]
  No. of Deaths: 0
  T/C: 80
Sarcoma 180 [1]; [21]
  No. of Deaths: 3/6
  T/C: 24
Sarcoma 180 [1]; [7]
  No. of Deaths: 0
  T/C: 138
Sarcoma 180 [1]; [8]
  No. of Deaths: 0
  T/C: 85
Sarcoma 180 [1]; [9]
  No. of Deaths: 0
  T/C: 50
Sarcoma 180 [3]; 40 mg/kg
  Deaths: 3
  Total Number of Regressions: 3
Sarcoma 180 [3]; 45 mg/kg
  Deaths: 5
  Total Number of Regressions: 1
Sarcoma 180 [3]; 50 mg/kg
  Deaths: 4
  Total Number of Regressions: 2
Sarcoma 180 [3]; 60 mg/kg
  Deaths: 3
  Total Number of Regressions: 3
ADJ/PC6A; [22]
  % Inhibition: 1.3%
  Deaths: 0
ADJ/PC6A; [23]
  % Inhibition: 94%
  Deaths: 0
ADJ/PC6A; [24]
  % Inhibition: 100%
  Deaths: 0
ADJ/PC6A; dose 500, single injection day 25 in oil
  Deaths: all

## CN.CN.O=C([O-])CC(=O)[O-].[Pt+2] [malonatobis(methylamine) platinum (II)]
Sarcoma 180 [1]; [7]
  No. of Deaths: 0
  T/C: 58
Sarcoma 180 [1]; [8]
  No. of Deaths: 0
  T/C: 53
Sarcoma 180 [1]; [9]
  No. of Deaths: 0
  T/C: 28
Sarcoma 180 [1]; [25]
  No. of Deaths: 0
  T/C: 25
Sarcoma 180 [1]; [10]
  No. of Deaths: 1
  T/C: 17
Sarcoma 180 [1]; [26]
  No. of Deaths: 1
  T/C: 19

## CCC(C(=O)[O-])C(=O)[O-].N.N.[Pt+2] [ethylmalontodiammineplatinum(II)]
Sarcoma 180 [1]; [27]
  No. of Deaths: 0
  T/C: 57
Sarcoma 180 [1]; [16]
  No. of Deaths: 0
  T/C: 43
Sarcoma 180 [1]; [18]
  No. of Deaths: 0
  T/C: 47
Sarcoma 180 [1]; [20]
  No. of Deaths: 0
  T/C: 39
Sarcoma 180 [1]; [28]
  No. of Deaths: 0
  T/C: 17
Sarcoma 180 [1]; [21]
  No. of Deaths: 0
  T/C: 16

## CC1C(=O)[O][Pt]2([NH]CC[NH]2)[O]C1=O [methylmalonatoethylenediamineplatinum (II)]
Sarcoma 180 [1]; [27]
  No. of Deaths: 0
  T/C: 78
Sarcoma 180 [1]; [16]
  No. of Deaths: 0
  T/C: 80
Sarcoma 180 [1]; [18]
  No. of Deaths: 0
  T/C: 51
Sarcoma 180 [1]; [20]
  No. of Deaths: 0
  T/C: 26
Sarcoma 180 [1]; [28]
  No. of Deaths: 1
  T/C: 20
Sarcoma 180 [1]; [29]
  No. of Deaths: 1
  T/C: 4

## CCC1C(=O)[O][Pt]2([NH]CC[NH]2)[O]C1=O [ethylmalonatoethylenediamineplatinum (II)]
Sarcoma 180 [1]; [5]
  No. of Deaths: 0
  T/C: 72
Sarcoma 180 [1]; [6]
  No. of Deaths: 0
  T/C: 81
Sarcoma 180 [1]; [7]
  No. of Deaths: 0
  T/C: 79
Sarcoma 180 [1]; [30]
  No. of Deaths: 0
  T/C: 47
Sarcoma 180 [1]; [8]
  No. of Deaths: 1
  T/C: 55
Sarcoma 180 [1]; [31]
  No. of Deaths: 0
  T/C: 41
Sarcoma 180 [1]; [9]
  No. of Deaths: 0
  T/C: 58

## CC(N)CN.O=C([O-])CC(=O)[O-].[Pt+2] [malonato-1,2 propylenediamineplatinum (II)]
Sarcoma 180 [1]; [32]
  No. of Deaths: 0
  T/C: 50
Sarcoma 180 [1]; [6]
  No. of Deaths: 1
  T/C: 9
Sarcoma 180 [1]; [33]
  No. of Deaths: 3
  T/C: 16
Sarcoma 180 [1]; [30]
  No. of Deaths: 5

## CC1C(=O)[O][Pt]([NH2])([NH2])[O]C1=O [Methylmalonatodiammineplatinum(II)]
Sarcoma 180 [1]; [27]
  No. of Deaths: 0
  T/C: 39
Sarcoma 180 [1]; [16]
  No. of Deaths: 0
  T/C: 26
Sarcoma 180 [1]; [18]
  No. of Deaths: 0
  T/C: 35
Sarcoma 180 [1]; [20]
  No. of Deaths: 0
  T/C: 6
Sarcoma 180 [1]; [28]
  No. of Deaths: 3/6
  T/C: 124
Sarcoma 180 [1]; [21]
  No. of Deaths: 6/6
